Test results taken from patent publication US9126933B2, “Soft PDE4 inhibitors” (Amakem NV, priority 2011, dated 2015).
Values after ≈ are worked out from the molar mass of the structure shown.

Experiments:
recombinant PDE4B1 = molecular target: T1, recombinant PDE4B1 (Homo sapiens, UniProt Q07343); assay: PDE4 inhibitory activity screening, PDE4B1 (HTRF, cAMP substrate); format: biochemical; details: 40 nM cAMP, 30 minutes, room temperature
T1 construct: host or cells: Sf9 insect cells
Description: (§1) Various concentrations of the test compounds were incubated with recombinant PDE4B1 or PDE4D2 (isolated from Sf9 cells), using 40 nM cAMP as enzyme substrate. Incubation time was set to 30 minutes. The reaction was carried out at room temperature. At the end of the incubation time, residual cAMP concentration was determined, using HTRF as detection method.
(§2) The IC50 values (concentration causing a half-maximal inhibition of control specific activity) and Hill coefficients (nH) were determined by non-linear regression analysis of the inhibition curves generated with mean replicate values using Hill equation curve fitting (Y=D+[(A−D)/(1+(C/C50)nH)], where Y=specific activity, D=minimum specific activity, A=maximum specific activity, C=compound concentration, C50=IC50 and nH=slope factor).

[1] = Solubility in aqueous solution (PBS pH 7.4); format: physicochemical; details: phosphate buffer saline (PBS), pH 7.4, aqueous buffer, kinetic from dmso stock; PBS pH7.4, 24 h, room temperature, theoretical concentration 200 μM
Description: Using a 10 mM stock solution of each compound in 100% DMSO, dilutions were prepared to a theoretical concentration of 200 μM in both phosphate buffer saline (PBS), pH7.4 and in 100% DMSO (as reference). Solutions (triplicates) were incubated at room temperature for 24 h on a shaker at 100 rpm. The solutions were then centrifugated at 13000 rpm for 30 min and the supernatant was further diluted to 2 μM in methanol. The supernatant was then analyzed by LC-MSMS. The concentration of compound in PBS supernatant was determined by comparing the MS peak area with that of the reference solution in DMSO.

recombinant PDE4D2 = molecular target: T2, recombinant PDE4D2 (Homo sapiens, UniProt Q08499); assay: PDE4 inhibitory activity screening, PDE4D2 (HTRF, cAMP substrate); format: biochemical; details: 40 nM cAMP, 30 minutes, room temperature
T2 construct: host or cells: Sf9 insect cells
Description: as §1, §2

[2] = Stability assay in human plasma; format: in vitro ADME; details: 1 μM compound
Description: Compounds are incubated at a concentration of 1 μM in rat (mice/rabbit/dog/rabbit) or human plasma. Samples are taken at fixed time points and the remnant of compound is determined by LC-MS/MS after protein precipitation. Half life of the compound is expressed in minutes.

[3] = Membrane permeability, Pampa assay; details: for Papp at 5 h, 10 μM: PAMPA, pH 7.4; for Papp (Pampa; 10^−6 cm/s): 10 μM in 10 mM PBS pH=7.4, 2% DMSO, 5 hours, room temperature
Description: (§3) The capacity of compounds of the invention to cross a lipophilic membrane was evaluated in a Pampa assay, using an assay plate containing structured layers of phospholipids supported on a PVDF filter (Benton Dickinson). […] Each compound was tested in triplicate and was prepared as a 10 μM solution in 10 mM PBS pH=7.4 buffer containing 2% DMSO. Compounds were dosed in the donor chamber of the assay plate and incubated for 5 hours, at room temperature. Additionally, an equilibrium solution plate containing 6 μM of test compound was prepared. Test compound concentration in donor and acceptor chamber and in the equilibrium plate was quantified using HPLC-MS/MS. The subsequently calculated permeability coefficients were reported as Papp.

[4] = Stability towards drug metabolizing enzymes in lung S9; format: in vitro ADME; details: lung S9 (from smokers); human lung S9, 1 μM compound, cofactors NADPH, UDPGA, PAPS, GSH
Description: A 1 μM solution of the compounds is incubated with a reaction mixture containing lung S9 (from smokers) as well as the cofactors NADPH, UDPGA, PAPS and GSH. Samples are collected at 0, 15, 30 and 60 minutes post incubation. Negative control samples incubated with […] and S9 fraction in the absence of cofactors are run in parallel. By using LC-MS/MS analysis, the percent of compounds remaining at each time point, the metabolic half-life of the compounds (expressed in minutes) and the metabolic half-life of the control compounds are determined.

[5] = Stability assay in aqueous humor; format: in vitro ADME; details: rabbit aqueous humor, 1 μM compound
Description: Compounds are incubated at a concentration of 1 μM in human or animal (e.g. rabbit) aqueous humor (AH). Samples are taken at fixed time points and the remnant of compound is determined by LC-MS/MS after protein precipitation.

in vitro = details: PAMPA, pH 7.4
Description: as §3

T1 sequence (Q07343 whole entry): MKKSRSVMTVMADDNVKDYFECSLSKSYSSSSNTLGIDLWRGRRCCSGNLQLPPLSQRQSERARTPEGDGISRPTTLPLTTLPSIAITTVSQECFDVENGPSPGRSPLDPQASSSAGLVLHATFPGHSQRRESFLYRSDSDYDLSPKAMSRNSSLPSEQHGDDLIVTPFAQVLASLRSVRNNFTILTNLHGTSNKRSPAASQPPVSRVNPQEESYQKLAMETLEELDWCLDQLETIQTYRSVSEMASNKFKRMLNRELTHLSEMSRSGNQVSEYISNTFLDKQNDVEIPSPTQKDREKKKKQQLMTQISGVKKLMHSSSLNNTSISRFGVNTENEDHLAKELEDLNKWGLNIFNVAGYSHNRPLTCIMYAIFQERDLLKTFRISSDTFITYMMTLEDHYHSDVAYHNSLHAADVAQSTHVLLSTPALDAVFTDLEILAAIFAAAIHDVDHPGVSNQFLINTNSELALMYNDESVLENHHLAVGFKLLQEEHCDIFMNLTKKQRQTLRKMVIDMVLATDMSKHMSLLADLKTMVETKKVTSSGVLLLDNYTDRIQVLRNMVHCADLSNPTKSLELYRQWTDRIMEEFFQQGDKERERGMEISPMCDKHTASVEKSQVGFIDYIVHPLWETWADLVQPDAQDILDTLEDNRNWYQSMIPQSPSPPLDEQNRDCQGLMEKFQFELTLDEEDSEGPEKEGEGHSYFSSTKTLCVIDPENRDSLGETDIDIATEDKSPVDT
T2 sequence (Q08499 303-809 limits assumed): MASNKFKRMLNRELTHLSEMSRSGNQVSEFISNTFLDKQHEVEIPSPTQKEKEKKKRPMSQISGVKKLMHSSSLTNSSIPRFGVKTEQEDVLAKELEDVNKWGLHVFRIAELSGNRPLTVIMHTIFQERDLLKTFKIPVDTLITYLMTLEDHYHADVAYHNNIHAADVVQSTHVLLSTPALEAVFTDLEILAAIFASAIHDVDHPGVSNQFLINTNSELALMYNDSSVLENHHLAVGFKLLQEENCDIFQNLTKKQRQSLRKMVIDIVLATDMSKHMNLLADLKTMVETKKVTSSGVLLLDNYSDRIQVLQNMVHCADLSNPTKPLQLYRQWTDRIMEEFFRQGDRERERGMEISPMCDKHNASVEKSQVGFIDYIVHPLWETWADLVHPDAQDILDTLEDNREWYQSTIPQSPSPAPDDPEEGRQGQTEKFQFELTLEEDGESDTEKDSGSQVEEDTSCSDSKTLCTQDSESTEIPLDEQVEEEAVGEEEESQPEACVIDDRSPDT

Row | Compound | IC50 (recombinant PDE4B1) [nM] | solubility at 24 h [1] [µM] | IC50 (recombinant PDE4D2) [nM] | half-life at 1 μM [2] [min] | Papp at 5 h, 10 μM [3] [×10⁻⁶ cm/s] | half-life at 1 μM [4] [min] | Papp (Pampa; 10^−6 cm/s) [3] | half-life at 1 μM [5] [min] | Papp at 5 h, 10 μM (in vitro) [×10⁻⁶ cm/s]
1 | CCCOC(=O)CCCCOc1cc(C(=O)Nc2c(Cl)cncc2Cl)ccc1OC(F)F [Compound 1, propyl 5-[5-{[(3,5-dichloropyridin-4-yl)amino]carbonyl}-2-(difluoromethoxy)phenoxy]pentanoate] | 10 to 100 | 10 to 100 (≈ 4.91 to 49.1 µg/mL) | 10 to 100 | – | – | – | – | – | –
2 | O=C(CCCCOc1cc(C(=O)Nc2c(Cl)cncc2Cl)ccc1OC(F)F)Oc1ccccc1 [Compound 2, phenyl 5-[5-{[(3,5-dichloropyridin-4-yl)amino]carbonyl}-2-(difluoromethoxy)phenoxy]pentanoate] | 10 to 100 | 10 to 100 (≈ 5.25 to 52.5 µg/mL) | 10 to 100 | < 15 | – | – | – | – | –
3 | O=C(CCCCOc1cc(C(=O)Nc2c(Cl)cncc2Cl)ccc1OC(F)F)Oc1ccccc1F [Compound 3] | 10 to 100 | < 10 | 100 to 500 | < 15 | – | – | – | – | –
4 | O=C(CCCCOc1cc(C(=O)Nc2c(Cl)cncc2Cl)ccc1OC(F)F)OCc1ccccc1 [Compound 4] | 10 to 100 | < 10 | 100 to 500 | – | – | – | – | – | –
5 | O=C(CCCCOc1cc(C(=O)Nc2c(Cl)cncc2Cl)ccc1OC(F)F)OCCN1CCOCC1 [Compound 5] | < 10 | > 100 | < 10 | 15 to 60 | – | – | – | – | –
6 | O=C(CCCCOc1cc(C(=O)Nc2c(Cl)cncc2Cl)ccc1OC(F)F)OCC1CCCO1 (centres unmarked) [Compound 6] | < 10 | – | 10 to 100 | 15 to 60 | – | – | – | – | –
7 | COCCOC(=O)CCCCOc1cc(C(=O)Nc2c(Cl)cncc2Cl)ccc1OC(F)F [Compound 7] | < 10 | > 100 | 10 to 100 | 15 to 60 | 9.2 | – | – | – | –
8 | O=C(CCCCOc1cc(C(=O)Nc2c(Cl)cncc2Cl)ccc1OC(F)F)OCCN1CCCC1 [Compound 8] | < 10 | > 100 | 10 to 100 | < 15 | 7.5 | – | – | – | –
9 | CN(C)CCOC(=O)CCCCOc1cc(C(=O)Nc2c(Cl)cncc2Cl)ccc1OC(F)F [Compound 9] | 10 to 100 | 10 to 100 (≈ 5.2 to 52 µg/mL) | 10 to 100 | < 15 | 3 | – | – | – | –
10 | O=C(CCCCOc1cc(C(=O)Nc2c(Cl)cncc2Cl)ccc1OC(F)F)NCCSC1CCOC1=O (centres unmarked) [Compound 10] | < 10 | > 100 | < 10 | < 15 | 3.7 | – | – | – | –
11 | O=C(Nc1c(Cl)cncc1Cl)c1ccc(OC(F)F)c(OCCCCNC2CCOC2=O)c1 (centres unmarked) [Compound 11, N-(3,5-dichloropyridin-4-yl)-4-(difluoromethoxy)-3-{4-[(2-oxotetrahydrofuran-3-yl)amino]butoxy}benzamide] | < 10 | 10 to 100 (≈ 5.04 to 50.4 µg/mL) | < 10 | < 15 | 5 | > 60 | – | – | –
12 | O=C(Nc1c(Cl)cncc1Cl)c1ccc(OC(F)F)c(OCCCCSC2CCOC2=O)c1 (centres unmarked) [Compound 12, N-(3,5-dichloropyridin-4-yl)-4-(difluoromethoxy)-3-{4-[(2-oxotetrahydrofuran-3-yl)thio]butoxy}benzamide] | < 10 | 10 to 100 (≈ 5.21 to 52.1 µg/mL) | < 10 | < 15 | – | > 60 | 2.5 10^−6 cm/s | – | –
13 | O=C(Nc1c(Cl)cncc1Cl)c1ccc(OC(F)F)c(OCCCSC2CCOC2=O)c1 (centres unmarked) [Compound 13] | < 10 | 10 to 100 (≈ 5.07 to 50.7 µg/mL) | < 10 | < 15 | – | – | 6.6 10^−6 cm/s | – | –
14 | O=C(Nc1c(Cl)cncc1Cl)c1ccc(OC(F)F)c(OCCCNC2CCOC2=O)c1 (centres unmarked) [Compound 14] | < 10 | 10 to 100 (≈ 4.9 to 49 µg/mL) | 10 to 100 | < 15 | – | > 60 | 7.3 10^−6 cm/s | – | –
15 | COC(=O)CNCCCOc1cc(C(=O)Nc2c(Cl)cncc2Cl)ccc1OC(F)F [Compound 15] | 10 to 100 | > 100 | 10 to 100 | 15 to 60 | 5.6 | – | – | 60 to 120 | –
16 | COC(=O)Cc1cccc(NCCCOc2cc(C(=O)Nc3c(Cl)cncc3Cl)ccc2OC(F)F)c1 [Compound 16] | < 10 | < 10 | 10 to 100 | < 15 | – | – | – | – | –
17 | COC(=O)c1cccc(SCCCOc2cc(C(=O)Nc3c(Cl)cncc3Cl)ccc2OC(F)F)c1 [Compound 17] | 100 to 500 | < 10 | 100 to 500 | – | – | – | – | – | –

Row | Compound | IC50 (recombinant PDE4B1) [nM] | solubility at 24 h [1] [µM] | IC50 (recombinant PDE4D2) [nM] | half-life at 1 μM [2] [min] | Papp at 5 h, 10 μM [3] [×10⁻⁶ cm/s] | half-life at 1 μM [4] [min] | Papp (Pampa; 10^−6 cm/s) [3] | half-life at 1 μM [5] [min] | Papp at 5 h, 10 μM (in vitro) [×10⁻⁶ cm/s]
18 | COC(=O)c1ccc(SCCCOc2cc(C(=O)Nc3c(Cl)cncc3Cl)ccc2OC(F)F)cc1 [Compound 18] | 100 to 500 | – | 100 to 500 | – | – | – | – | – | –
19 | COC(=O)c1ccc(Oc2cc(C(=O)Nc3c(Cl)cncc3Cl)ccc2OC(F)F)cc1 [Compound 21, Methyl 4-(5-((3,5-dichloropyridin-4-yl)carbamoyl)-2-(difluoromethoxy)phenoxy)benzoate] | 10 to 100 | 10 to 100 (≈ 4.83 to 48.3 µg/mL) | > 500 | – | – | – | – | > 120 | –
20 | CCOC(=O)c1cccc(Oc2cc(C(=O)Nc3c(Cl)cncc3Cl)ccc2OC(F)F)c1 [Compound 22, Ethyl 3-(5-((3,5-dichloropyridin-4-yl)carbamoyl)-2-(difluoromethoxy)phenoxy)benzoate] | 10 to 100 | – | 100 to 500 | – | – | – | – | – | –
21 | O=C(Nc1c(Cl)cncc1Cl)c1ccc(OC(F)F)c(OCCCSc2cccc(C(=O)OCCO)c2)c1 [Compound 23] | 10 to 100 | – | 10 to 100 | – | – | – | – | – | –
22 | CN(C)CCOC(=O)c1cccc(SCCCOc2cc(C(=O)Nc3c(Cl)cncc3Cl)ccc2OC(F)F)c1 [Compound 24] | 10 to 100 | – | 10 to 100 | < 15 | – | – | – | – | –
23 | O=C(Nc1c(Cl)cncc1Cl)c1ccc(OC(F)F)c(OCCCSc2ccc(C(=O)OCCO)cc2)c1 [Compound 25] | 10 to 100 | – | 10 to 100 | – | – | – | – | – | –
24 | CN(C)CCOC(=O)c1ccc(SCCCOc2cc(C(=O)Nc3c(Cl)cncc3Cl)ccc2OC(F)F)cc1 [Compound 26] | 10 to 100 | – | < 10 | < 15 | – | – | – | – | –
25 | O=C(Nc1c(Cl)cncc1Cl)c1ccc(OC(F)F)c(Oc2ccc(C(=O)OCCO)cc2)c1 [Compound 27] | 10 to 100 | – | 10 to 100 | – | 2.3 | – | – | > 120 | –
26 | CN(C)CCOC(=O)c1ccc(Oc2cc(C(=O)Nc3c(Cl)cncc3Cl)ccc2OC(F)F)cc1 [Compound 28] | 10 to 100 | – | 100 to 500 | 15 to 60 | 7.9 | – | – | 60 to 120 | –
27 | O=C(Nc1c(Cl)cncc1Cl)c1ccc(OC(F)F)c(Oc2cccc(C(=O)OCCO)c2)c1 [Compound 29] | < 10 | – | 10 to 100 | – | 5.1 | – | – | – | –
28 | CN(C)CCOC(=O)c1cccc(Oc2cc(C(=O)Nc3c(Cl)cncc3Cl)ccc2OC(F)F)c1 [Compound 30] | < 10 | – | 10 to 100 | < 15 | 5.3 | – | – | – | –
29 | O=C(Nc1c(Cl)cncc1Cl)c1ccc(OC(F)F)c(OCCCCNC(CCO)C(=O)O)c1 (centres unmarked) [Met1] | 100 to 500 | – | 100 to 500 | – | 0.03 | – | – | – | –
30 | O=C(Nc1c(Cl)cncc1Cl)c1ccc(OC(F)F)c(OCCCNC(CCO)C(=O)O)c1 (centres unmarked) [Met2] | > 500 | – | > 500 | – | 0.02 | – | – | – | –
31 | O=C(O)CNCCCOc1cc(C(=O)Nc2c(Cl)cncc2Cl)ccc1OC(F)F [Met3, 2-[(3-{5-[(3,5-dichloropyridin-4-yl)carbamoyl]-2-(difluoromethoxy)phenoxy}propyl)amino]acetic acid] | > 500 | – | > 500 | – | 0.02 | – | – | – | –
32 | CC(C)NCC(O)COc1cccc2ccccc12 (centres unmarked) [Propranolol] | – | – | – | – | – | – | – | – | 9.5
33 | O=C(Nc1c(Cl)cncc1Cl)c1ccc(OC(F)F)c(OCC2CC2)c1 [Roflumilast, reference compound] | – | < 10 | – | – | – | – | – | – | –
